What is called LC50 is the concentration that kills 50% of the test population. As usually defined, the IC50 is the point on the concentration scale where inhibition reaches its midpoint.

Molecules are shown by their SMILES. Where two headings read alike, the source gives them in different places. Where only a bound is given, the exact number is not on record here.

The record followed here is PMC9645637 (PLOS ONE, 2022).

For series [1], the system named is An. gambiae (COGS) larvae. Description: Larvicidal assay (WHO bioassay for mosquito larvicides). To be noted: Anopheles gambiae, read-out: Larvicidal LC50 (95% confidence interval range). The source says:
(§1) The laboratory-reared colonies of An. funestus (FUMOZ), An. arabiensis (KWAG), An. gambiae (COGS) and An. coluzzii (G3) were used for larvicidal and AChE screening assays. These are common Anopheles species responsible for malaria transmission in Africa. These colonies were maintained under standard insectary conditions as reported by Hunt et al. and Zengenene et al.. FUMOZ was first collected from Mozambique in 2000 and has a low-level intensity of pyrethroid and carbamate resistance. KWAG was collected from KwaZulu-Natal (South Africa) in 2005 and has shown resistance to pyrethroids and the organochloride, dichloro-diphenyl-trichloroethane (DDT).
(§2) The incubation mixture was performed in a total volume of 250 mL of deionized water under 27°C and humidity ≥78%. The test compounds were dissolved in DMSO and assessed for larvicidal activity at 10 times increasing concentrations from 0.0005 μM to 500 μM. Propoxur, a standard larvicide and an AChE agent, was used as a positive control, while DMSO was employed for the negative vehicle control. Larval mortality was recorded in 24, 48 and 72 hours and larvae were fed with protein dog food at day 0 and after every mortality counting.
(§3) All in vitro and in vivo assays were performed in triplicate.

Series [2] relates to An. funestus (FUMOZ) larvae. The description is as above. The following applies: read-out: Larvicidal LC50 (95% confidence interval range); An. funestus (FUMOZ) third-instar larvae.
Excerpt: as §1, §2, §3

In series [3] the test system is An. arabiensis (KWAG) larvae. Described as above. To be noted: for LC50: Anopheles arabiensis, read-out: Larvicidal LC50 (95% confidence interval range).
Excerpt: as §1, §2, §3

In the next series the test system is An. coluzzii (G3) larvae. Described as above. To be noted: read-out: Larvicidal LC50 (95% confidence interval range); An. coluzzii (G3) third-instar larvae.
Excerpt: as §1, §2, §3

The target in the next series is electric eel AChE (Electrophorus electricus, UniProt O42275). Description: AChE assay (modified Ellman assay), electric eel AChE. Type of series: biochemical. As to the method:
(§4) Mosquitoes from the four Anopheles colonies were separately homogenized in Na2HPO4, 1% Triton X-100 (pH 8.0) and used as an enzyme source. Protein content was assessed using the standard Lowry protein assay. The incubation mixture in a 96-well plate consisted of 20 μl of the enzyme in 132 μL of the assay buffer (Na2HPO4, 1% Triton X-100; pH 8.0). […] Ellman’s reagent, 5,5′-dithiobis(2-nitrobenzoic acid) (DTNB), was freshly prepared in sodium phosphate buffer (dibasic; pH 7.0) and 8 μL (0.2 mM) added to the incubation mixture. To initiate the reaction, 20 μL (1 mM) of the AChE substrate, acetylthiocholine iodide was added making a total volume of 200 μL in each well and the absorbance readings were obtained using the UV-Visible spectrophotometer at 412 nm. Propoxur was kept as a positive control on the basis of having both AChE and larvicidal activities, while DMSO was used as a negative control. […] However, the insecticide propoxur was also assessed against this target to determine AChE selectivity between electric eel and Anopheles and subsequent comparison with the test compounds.
as §3
Background: Ellman's reagent forms a yellow product with free thiols.

In a further series the test system is An. funestus AChE. Description: AChE assay (modified Ellman assay), mosquito homogenate. The following applies: read-out: Anopheles AChE inhibition IC50 ± SE (95% confidence interval range). Type of series: biochemical. The method, then: as §4, §3
For the next series, the target named is T1, An. gambiae AChE (Anopheles gambiae, UniProt Q869C3).
T1 construct: Mosquitoes from the four Anopheles colonies were separately homogenized in Na2HPO4, 1% Triton X-100 (pH 8.0) and used as an enzyme source; from tissue; host or cells: whole mosquito homogenate (An. gambiae colony)
Described as above. Type of series: biochemical. The method, then: as §4, §3

A further series has as its target An. arabiensis AChE (Anopheles gambiae, UniProt Q869C3). The series is described as above. The format is biochemical. The method, then: as §4, §3
For another series, the system named is Artemia franciscana. To be noted: read-out: Brine shrimp LC50 (95% confidence interval); Artemia franciscana nauplii, 24 h. The method, then: as §3
[4] abbreviates: read-out: Electric eel AChE inhibition IC50 ± SE (95% confidence interval range).
Where [5] appears, read: An. gambiae homogenate, read-out: Anopheles AChE inhibition IC50 ± SE (95% confidence interval range).
Where [6] appears, read: An. arabiensis homogenate, read-out: Anopheles AChE inhibition IC50 ± SE (95% confidence interval range).

Chain of An. arabiensis AChE (Q869C3 162-698 limits assumed): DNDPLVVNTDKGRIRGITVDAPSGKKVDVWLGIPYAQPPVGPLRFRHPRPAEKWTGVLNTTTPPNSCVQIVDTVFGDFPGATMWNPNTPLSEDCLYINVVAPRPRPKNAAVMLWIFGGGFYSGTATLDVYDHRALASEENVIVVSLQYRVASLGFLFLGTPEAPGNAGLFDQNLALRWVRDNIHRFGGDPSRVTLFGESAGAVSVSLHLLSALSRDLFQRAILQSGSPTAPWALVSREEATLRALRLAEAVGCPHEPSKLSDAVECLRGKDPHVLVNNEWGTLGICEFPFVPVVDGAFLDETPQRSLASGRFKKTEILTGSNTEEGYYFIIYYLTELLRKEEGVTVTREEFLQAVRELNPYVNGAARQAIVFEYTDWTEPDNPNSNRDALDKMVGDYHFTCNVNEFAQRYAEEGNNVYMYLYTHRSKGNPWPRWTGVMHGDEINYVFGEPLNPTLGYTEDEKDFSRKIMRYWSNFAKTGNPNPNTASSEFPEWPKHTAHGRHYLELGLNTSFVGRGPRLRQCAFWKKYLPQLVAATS
Chain of electric eel AChE (O42275 24-633): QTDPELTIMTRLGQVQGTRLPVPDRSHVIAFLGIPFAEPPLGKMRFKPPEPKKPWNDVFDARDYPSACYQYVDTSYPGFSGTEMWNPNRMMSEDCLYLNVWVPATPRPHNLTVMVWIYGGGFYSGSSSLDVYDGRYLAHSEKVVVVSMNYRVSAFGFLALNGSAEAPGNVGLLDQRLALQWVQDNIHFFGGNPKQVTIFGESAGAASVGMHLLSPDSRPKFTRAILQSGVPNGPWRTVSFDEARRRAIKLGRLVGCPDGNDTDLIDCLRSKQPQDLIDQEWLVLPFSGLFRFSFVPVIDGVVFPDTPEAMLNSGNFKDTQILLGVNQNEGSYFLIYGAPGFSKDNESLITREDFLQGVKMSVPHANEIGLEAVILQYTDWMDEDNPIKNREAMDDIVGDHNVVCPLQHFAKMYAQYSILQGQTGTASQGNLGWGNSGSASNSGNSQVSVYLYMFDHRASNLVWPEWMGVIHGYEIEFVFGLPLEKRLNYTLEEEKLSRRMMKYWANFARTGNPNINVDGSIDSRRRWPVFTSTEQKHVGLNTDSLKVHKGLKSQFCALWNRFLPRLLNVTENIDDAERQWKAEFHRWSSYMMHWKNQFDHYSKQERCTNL
T1 sequence (Q869C3 39-737): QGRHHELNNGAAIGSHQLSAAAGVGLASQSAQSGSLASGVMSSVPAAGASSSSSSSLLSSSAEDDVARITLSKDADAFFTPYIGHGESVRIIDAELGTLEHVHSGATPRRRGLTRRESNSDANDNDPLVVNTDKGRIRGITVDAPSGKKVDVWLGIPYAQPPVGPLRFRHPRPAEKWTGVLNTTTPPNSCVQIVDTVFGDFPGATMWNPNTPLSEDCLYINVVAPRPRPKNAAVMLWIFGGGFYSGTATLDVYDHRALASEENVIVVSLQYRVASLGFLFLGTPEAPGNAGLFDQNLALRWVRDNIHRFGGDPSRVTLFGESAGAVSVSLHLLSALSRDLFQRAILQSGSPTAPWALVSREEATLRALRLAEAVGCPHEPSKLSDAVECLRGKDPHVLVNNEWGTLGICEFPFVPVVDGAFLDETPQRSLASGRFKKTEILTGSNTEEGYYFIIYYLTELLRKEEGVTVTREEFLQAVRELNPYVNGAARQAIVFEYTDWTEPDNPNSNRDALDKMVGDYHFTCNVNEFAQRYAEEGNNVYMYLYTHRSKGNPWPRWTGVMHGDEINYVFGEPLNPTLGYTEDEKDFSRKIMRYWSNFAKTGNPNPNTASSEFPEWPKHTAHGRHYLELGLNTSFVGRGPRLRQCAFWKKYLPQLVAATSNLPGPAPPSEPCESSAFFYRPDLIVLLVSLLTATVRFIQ

Consider `O=C(NCCc1c[nH]cn1)C1CCN(Cc2ccccc2)CC1` [derivative 6, N-[2-(1H-imidazol-4-yl)ethyl]-1-benzylpiperidine-4-carboxamide], for which the LC50 (in [1]; in series [2]; in [3]; with An. coluzzii (G3) larvae) was greater than 100 µM each time.
Take `COc1cc(CCNC(=O)C2CCN(Cc3ccccc3)CC2)cc(OC)c1OC` [derivative 3, 1-benzyl-N-(3,4,5-trimethoxyphenethyl) piperidine-4-carboxamide]: the LC50 (in series [1]; in [2]; in [3]; in the series on An. coluzzii (G3) larvae) was greater than 100 µM throughout.
As for `O=C(NC1CCCc2ccccc21)C1CCN(Cc2ccccc2)CC1` (centres unmarked) [derivative 7, 1-benzyl-N-(1,2,3,4-tetrahydro-naphthalen-1-yl) piperidine-4-carboxamide], the LC50 (in series [1]; in series [2]; in series [3]; in the series with An. coluzzii (G3) larvae) was greater than 100 µM each time.
`O=C(Nc1nccs1)C1CCN(Cc2ccccc2)CC1` [derivative 2, 1-benzyl-N-(thiazol-2-yl) piperidine-4-carboxamide]: the LC50 in series [1] was greater than 100 µM; in [2], greater than 100 µM; in [3], 0.88 µM; in the series with An. coluzzii (G3) larvae it was greater than 100 µM. Further, the “Fold more potent than propoxur for An. arabiensis larval toxicity” value in series [3] (LC50 ratio versus propoxur) is “about 10 fold”. Moreover, the IC50 on electric eel AChE (setting [4]) was 55.7 ± 12 µM; in the series with An. funestus AChE it was greater than 100 µM; at An. gambiae AChE (setting [5]) it was greater than 100 µM; on An. arabiensis AChE (setting [6]) it was 6.05 ± 2.21 µM.
For `O=C(NCc1ccncc1)C1CCN(Cc2ccccc2)CC1` [derivative 9, 1-benzyl-N-(pyridine-4-ylmethyl) piperidine-4-carboxamide], the median lethal concentration (LC50) (in [1]; in series [2]; in [3]; with An. coluzzii (G3) larvae) was greater than 100 µM throughout.
Consider `O=C(NCCN1CCOCC1)C1CCN(Cc2ccccc2)CC1` [derivative 1, 1-benzyl-N-(2-morpholinoethyl) piperidine-4-carboxamide], for which the LC50 in series [1] is greater than 100 µM; in [2], 2.65 µM; in series [3], greater than 100 µM; in the series on An. coluzzii (G3) larvae, greater than 100 µM. Further, the IC50 at electric eel AChE (setting [4]) is greater than 100 µM; in the series on An. funestus AChE, greater than 100 µM; on An. gambiae AChE (setting [5]), 48.9 ± 10.5 µM; on An. arabiensis AChE (setting [6]) it was greater than 100 µM.
Turning to `CNC(=O)Oc1ccccc1OC(C)C` [Propoxur, propoxur, reference compound], the LC50 in series [1] stood at 64 µM; in [2] it was 9.9 µM; in series [3], 8.77 µM; in the series with An. coluzzii (G3) larvae, 62.7 µM. In addition, the IC50 against electric eel AChE worked out at 1.28 ± 0.35 µM; in the series on An. funestus AChE it was 0.89 ± 0.2 µM; at An. gambiae AChE, 26.1 ± 6.21 µM; against An. arabiensis AChE, 0.78 ± 0.16 µM.
Take `O=C(NCc1cccnc1)C1CCN(Cc2ccccc2)CC1` [derivative 4, 1-benzyl-N-(pyridine-3-ylmethyl) piperidine-4-carboxamide]: the LC50 (in series [1]; in [2]; in [3]; with An. coluzzii (G3) larvae) was greater than 100 µM throughout.
`O=C(NCCN1CCCCC1)C1CCN(Cc2ccccc2)CC1` [derivative 8, 1-benzyl-N-(2-(piperidin-1-yl)ethyl)piperidine-4-carboxamide]: the LC50 is greater than 100 µM in series [1], 0.8 µM in series [2], greater than 100 µM in [3] and greater than 100 µM in the series with An. coluzzii (G3) larvae. For the same compound, the IC50 on electric eel AChE (setting [4]) is 88.3 ± 19.9 µM; in the series on An. funestus AChE, greater than 100 µM; on An. gambiae AChE (setting [5]) it was 28.1 ± 6.89 µM; on An. arabiensis AChE (setting [6]), greater than 100 µM.
For the compound `[K+].[K+].[O]=[Cr](=[O])([O-])[O][Cr](=[O])(=[O])[O-]` [potassium dichromate], the LC50 with Artemia franciscana stood at 0.004 µM.
With `O=C(NCc1ccco1)C1CCN(Cc2ccccc2)CC1` [derivative 5, 1-benzyl-N-(furan-2-ylmethyl) piperidine-4-carboxamide], the LC50 in series [1] was greater than 100 µM; in series [2], 2.96 µM; in [3] it was greater than 100 µM; in the series with An. coluzzii (G3) larvae it was greater than 100 µM. Also, the IC50 on electric eel AChE (setting [4]) is greater than 100 µM; in the series with An. funestus AChE, greater than 100 µM; on An. gambiae AChE (setting [5]), 31.4 ± 7.56 µM; on An. arabiensis AChE (setting [6]), greater than 100 µM.
